Key:
[1] = test system: free radicals (pro-inflammatory cytokines); conditions: ventilated infants with bronchopulmonary dysplasia; cited from earlier work
chronic lung disease = conditions: infants; cited from earlier work
[2] = Solubility / maximum concentration of melatonin in solvent; assay type: physicochemical; conditions: physiological saline solution, no excipients, co-solvents or diluents
Source text: There are moreover disclosed in the literature injectable formulations of melatonin, that are in general solutions of melatonin in ethanol or in propylene glycol, then diluted with water. As a matter of fact, melatonin is known to be a substance that dissolves in aqueous media with great difficulties.
The present pharmaceutical compositions in the form of an aqueous solution, thanks to the process of preparation of the invention described in detail in the following, may contain, dissolved in aqueous solution, amounts of melatonin that are relatively high and suitable for the dosages required in medical treatments; the concentration of melatonin in the present compositions is indeed comprised between 0.2 and 0.4 mg/ml, this latter being the maximum value of concentration obtained for the melatonin in the present aqueous compositions, in the absence of any excipients, co-solvents or diluents different from the physiological saline solution.
A pharmaceutical dissolver of suitable size was deaerated by insufflation of filtered nitrogen, then the dissolver was charged with water for injections at 85° C., to fill approximately 80% of the inner volume of the dissolver. After cooling water at 50° C., sodium chloride was added in such amount as to obtain a final concentration of 9mg/ml; the so obtained solution was deaerated by bubbling filtered nitrogen. […]

[3] = cited from earlier work
pain = conditions: in combination with other drugs, endotracheal intubation in infants; cited from earlier work

maximum value of concentration obtained in aqueous composition [2]: 0.4 mg/mL
SMILES: COc1ccc2[nH]cc(CCNC(C)=O)c2c1 [melatonin, N-acetyl-5-methoxytriptamine]
reduction of production of free radicals (pro-inflammatory cytokines) [1]: effective in reducing the production of these molecules
efficacy in chronic lung disease (chronic lung disease): same efficacy has been demonstrated
solubility in ethanol ([3]; ethanol): fairly good solubility
solubility in water ([3]; water): close to zero
efficacy as an analgesic (pain): demonstrated the efficacy

Source: patent publication US20180028498A1, “A PHARMACEUTICAL COMPOSITION FOR THE PARENTERAL ADMINISTRATION OF MELATONIN, AND A PROCESS FOR ITS PREPARATION” (INDUSTRIA FARMACEUTICA GALENICA SENESE S.R.L., priority 2015, published 2018)
